Tests used:
[1] = test system: 22Rv1 cells; assay: Caspase-Glo 3/7 assay; format: cell-based; conditions: 22Rv1, 24 h
Protocol: Caspase-Glo® 3/7 assays. 22Rv1 cells were seeded at 10,000 cells/well of white 96 well plates (Corning #3917) 12-24 h before treatment with test compounds with and without inhibitors or an equivalent volume of DMSO for 24 h. 100 μL/well of Caspase-Glo@ 3/7 Reagent (Promega) was added and the plate shaken at 500 rpm for 30 seconds. The plate was incubated for 2 h and luminescence measured using a PHERAstar FS plate reader (BMG Labtech).

[2] = target: T1, HiBiT-BRD4 (Homo sapiens, UniProt O60885); assay: NanoBRET target engagement, permeabilized and live cells; format: cell-based; conditions: live cell format; unit given with each value; read-out: IC80 for tracer displacement
T1 construct: endogenously HiBiT tag the N-terminal genomic loci of BRD2, BRD3, or BRD4; endogenous in cells; host or cells: HEK293 stably expressing LgBiT, CRISPR/Cas9 edited
Protocol: Cells were treated with a fluorescent BET tracer, then incubated with the indicated compounds at various concentrations to measure competitive displacement.
(§1) NanoBRET Target Engagement and Residence Time. For target engagement experiments in live and permeabilized cells, CRISPR HiBiT-BRD4 HEK293 cells stably expressing LgBiT were plated into white 96-well tissue culture plates at a density of 2×10^4 cells/well. Cells were equilibrated for 1 h with energy transfer probes and the indicated test compound prior to NanoBRET measurements. NanoBRET tracers were prepared at a working concentration of 20× in tracer dilution buffer (12.5 mM HEPES, 31.25% PEG-400, pH 7.5). NanoBRET BRD Tracer-02 was added to cells at a final concentration of 0.5 μM. To measure NanoBRET in live cells, NanoBRET NanoGlo Substrate and Extracellular NanoLuc Inhibitor (Promega) were added according to the manufacturer's recommended protocol, and filtered luminescence was measured on a GloMax Discover luminometer equipped with 450 nm BP filter (donor) and 600 nm LP filter (acceptor) using 0.3 s integration time. To measure NanoBRET in permeabilized cells, digitonin was added to the cells to a final concentration of 50 μg/mL and Extracellular NIuc inhibitor was omitted during the detection step. […] Cells were incubated in 15 mL conical tubes with caps loosened in a tissue culture incubator for 1 h. Following incubation, cells were spun at 300×g for 5 min, washed once with Opti-MEM, spun a second time at 300×g for 5 min, then resuspended with fresh Opti-MEM before plating at 2×10^4 cells/well. NanoBRET BRD Tracer-02 was added at a final concentration of 0.5 μM cells and kinetic NanoBRET measurements were collected on a GloMax Discover. NanoBRET ratios were expressed in milliBRET units and calculated according to the equation in the NanoBRET Ubiquitination, Ternary Complex and Biosensor Experiments section.

[3] = test system: BRD2, BRD3 and BRD4; assay: Immunoblot degradation of BET proteins in HEK293 cells; format: cell-based, human
Protocol: To evaluate the ability of trivalent compounds to induce intracellular degradation of BET proteins, the inventors first treated human HEK293 cells for 4 hours at 1 μM concentration and assessed levels of BRD2, BRD3 and BRD4 by western blot. […] To confirm the greater activity of VHL-based compounds compared to CRBN-based PROTACs they next used live cell continual luminescent monitoring of CRISPR/Cas9 endogenously tagged HiBiT-BRD4 in HEK293 cells over 24 h^29,31. […] To confirm greater potency of VHL-based compounds, the inventors evaluated growth inhibition profiles of BET-sensitive cancer cell lines MV4; 11 (FIG. 1f), A549 and HL-60 (FIG. 6c) with compound treatments. […] Together, the initial screens support greater activity of structure-guided designed VHL degraders over their homologous CRBN molecules.
(§2) Degradation assays. MV4; 11 cells were seeded at 1×10^6 cells/mL of 10 cm dishes 12-24 h before treatment. 22Rv1 and HEK293 cells were seeded at 2.5-6×10^5 cells/well of 6 well plates 12-24 h before treatment. Cells were treated with test compounds with and without inhibitors as indicated or an equivalent volume of DMSO and lysed at the stated time point. For lysis, cells were washed twice in ice cold PBS (Invitrogen) then lysed in 250 μL/plate for MV4; 11 cells or 80 μL/well for 22Rv1 and HEK293 cells of ice cold lysis buffer containing 50 mM Tris hydrochloride pH 7.4, 150 mM sodium chloride, 1 mM EDTA pH 7.4, 1% v/v Triton X-100, 1×Halt™ Protease Inhibitor Cocktail (ThermoFisher). Lysates were sonicated, cleared by centrifugation at 4° C., at 15800×g for 10 mins and the supernatants stored at −80° C. Protein concentration was determined by BCA assay (Pierce) and the absorbance at 562 nm measured by spectrophotometry (NanoDrop ND1000). […] Bands were detected using a ChemiDoc MP imaging system (BioRad) and quantified (Image Studio Lite, version 5.2) with normalisation to β-actin and the DMSO control per time point. […]

[4] = test system: 22Rv1 cells; assay: PARP cleavage immunoblot in 22Rv1 cells; format: cell-based; conditions: 22Rv1, 10 nM, 24 h (MT1, MZ1 up to 48 h)
Protocol: Next, the inventors assessed the functional effects of SIM1 on the viability of 22Rv1 cancer cells. […] Cells died of apoptosis as indicated by prevented cleavage of PARP upon co-treatment with QVD-OPh, a pan-caspase inhibitor, and not of necroptosis, as shown by co-treatment with Necrostatin-1 (FIG. 3d and FIG. 10a).
as §2, with “Lysates were sonicated, cleared by centrifugation at 4° C., at 15800×g for 10 mins and the supernatants stored at −80° C.” left out

[5] = target: T1, HiBiT-BRD4; assay: NanoBRET live cell residence time; format: cell-based; conditions: live cells
Protocol: as §1

[6] = test system: HiBiT-BRD2, BRD3, and BRD4; assay: Degradation washout experiment, CRISPR HiBiT-BET HEK293 cells; format: cell-based, human; conditions: 100 nM for 3.5 h then washout, monitored 50 h
Protocol: Media containing the 10 nM and/or 100 nM compounds was removed at 3.5 h, indicated on the graphs, and replaced with media lacking compounds for the remainder of the experiment. Luminescence (RLU) was continuously monitored over a 50 h time period and is plotted normalized to the DMSO control as Fractional RLU.
To assess whether the trivalent PROTAC induced also a more sustained degradation of BET proteins in cells compared to MZ1 or (R,S)-SIM1, degradation washout experiments were performed. CRISPR HiBiT-BET HEK293 cells were treated with equivalent concentration (100 nM) of SIM1, (R,S)-SIM1 and MZ1 compounds for 3.5 h, then media was removed and replaced with media lacking compounds. […] The HiBiT-BET protein levels were continuously monitored from the initial addition of the compounds and immediately after the wash for a total time of 50 h.

Compound	EC50 [1] [nM]	IC80 [2] [nM]	preference of degradation among BET proteins ([3]; immunoblot, 4 h)	DC50 ([3]; immunoblot, 4 h treatment, across all the BET proteins) [nM]	PARP cleavage / cell death [4]	residence time on BRD4 [5]	BET protein level after washout [6]	degradation of BRD2, BRD3 and BRD4 by western blot ([3]; HEK293 cells, 1 μM, 4 h)
Cc1ncsc1-c1ccc([C@H](C)NC(=O)[C@@H]2C[C@@H](O)CN2C(=O)[C@@H](NC(=O)COCCCOCCNC(=O)C[C@@H]2N=C(c3ccc(Cl)cc3)c3c(sc(C)c3C)-n3c(C)nnc32)C(C)(C)C)cc1 [ARV-771]	90	–	–	–	–	–	–	–
Cc1ncsc1-c1ccc(CNC(=O)[C@@H]2C[C@@H](O)CN2C(=O)[C@@H](NC(=O)COCCOCCOCCNC(=O)C[C@@H]2N=C(c3ccc(Cl)cc3)c3c(sc(C)c3C)-n3c(C)nnc32)C(C)(C)C)cc1 [MZ1]	150	10000	[…]	[…]	did not cause observable PARP cleavage	residence time between the monovalent and bivalent BET inhibitors	greater and occurred faster than those observed with SIM1	–
Cc1ncsc1-c1ccc(CNC(=O)[C@@H]2C[C@@H](O)CN2C(=O)[C@@H](NC(=O)COCC(C)(COCCOCCOCCNC(=O)C[C@@H]2N=C(c3ccc(Cl)cc3)c3c(sc(C)c3C)-n3c(C)nnc32)COCCOCCOCCNC(=O)C[C@H]2N=C(c3ccc(Cl)cc3)c3c(sc(C)c3C)-n3c(C)nnc32)C(C)(C)C)cc1 (stereo partly drawn) [(R,S)-SIM1]	–	–	–	–	–	–	greater and occurred faster than those observed with SIM1	behave similarly to MZ1 and less potently than SIM1

Reference: patent US20240252654A1, “IMPROVED SMALL MOLECULES” (University of Dundee, priority 2020, published 2024)
